Laboratory results published in patent US12679855B2, “Inhibitors of the enzyme enolase for precision oncology” (Board of Regents, The University of Texas System, priority 2019, dated 2026).
“Also recorded” adds a separate entry of the source. Where two headings read alike, the source gives them in different places.

Columns and labels:
[1] = test system: D423 (ENO1-deleted) glioma cells; assay: Cell proliferation assay (crystal violet) in ENO1-deleted glioma cells; format: cell-based; conditions: for IC50: Glioma cell; for selectivity for ENO1-deleted cells: versus ENO1-rescued (D423 ENO1) and ENO1-intact (LN319) glioma cells
Protocol: Cell culture experiments. Cell culture experiments were conducted using the D423-MG cell line. 1p36 homozygous deletion in D423 includes the genes from CAMTAJ to SLC25A33; this includes ENO1. Isogenic ENO1 ectopically rescued lines were described previously (pCMV ENO1 5X) (Muller et al., 2012, which is incorporated by reference herein). An ENO1-intact cell line (LN319) was used as a control for sensitivity to Enolase inhibitors. Cells were routinely cultured in Dulbecco's modified Eagle's medium supplemented with 10% fetal bovine serum.
Cell proliferation assay. Cell Proliferation was determined by crystal violet staining, as previously described (Leonard et al., 2016 and Satani et al., 2016). The cell lines used were D423 (ENO1-deleted), D423 ENO1 (overexpressing ENO1) and LN319 (control). Glioma cells were seeded in 96-well plates and treated with varying concentrations of the inhibitors described above for 7 days. Cells were then washed with PBS, fixed with 10% formalin and stained with 0.05% crystal violet. Washed and dried plates were dye-extracted using 10% acetic acid, and absorbance was measured at 595 nm using Omegastar Plate Reader (BMG Labtech). To test the efficacy of the synthesized under hypoxic conditions, 1×10^4 cells were plated in 96-well plates, treated with VCY13, VCY15, VCY16, or VCY17 and incubated for 3 days in a hypoxia station (Don Whitley Scientific, Shipley, UK) set at 1% O2 and 5% CO2. Crystal violet staining was then performed as described above.
Additional Biological Data. Pro-drug inhibitor structures and corresponding IC50 values against ENO1-deleted cells are shown below in Table 2. The name and corresponding structures of all synthesized inhibitors are given in left and middle columns of each table. Pro-drug moieties in blue represent a second pro-drug leave group while those in red represent a first pro-drug leave group. Some inhibitors also contain an acetyl-protected hydroxamate, which is also a biologically labile moiety. ENO1-deleted (D423), ENO1-isogenically rescued (D423 ENO1), and ENO1-WT (LN319) cells were treated with either pro-drug inhibitor for 5 days at 21% O2, unless otherwise specified. […] IC50,D423 values at 21% O2 are given in the right columns of each table. Experiments conducted at 1% O2 (hypoxic) or 70% O2 (hyperoxic) conditions are noted, where appropriate.

[2] = Plasma levels after IV injection of POMHEX in monkeys; format: in vivo, monkey; conditions: after IV POMHEX, monkey 2.5 mg/kg, mouse 10 mg/kg
Protocol: (§1) FIGS. 16A-16C show the ex-vivo half-life of POMHEX in biological fluids limits its clinical utility. […] Lower levels of carboxylesterase in human blood results in a longer half-life of POMHEX. (FIG. 16B) Dramatically higher drug exposure in non-human primates as compared to mice following IV injections of POMHEX. Mice (n=3; pooled) and monkeys (n=3; pooled) were injected IV with POMHEX at 10 mg/kg and 2.5 mg/kg, respectively. […] POMHEX was undetectable (<50 nM) even at the earliest time point, in both monkey and mouse experiments; at 98 nM, POMHEX was detectable 1-minute post-injection, but at no time thereafter. […] HEX and HemiPOMHEX were not measured at concentrations higher than 10 mg/kg due to the hazards associated with the derivatization agent, trimethylsilyl-diazomethane in hexane (TMS-DAM). (FIG. 16C) Schematic of POMHEX in circulation when administered IP or IV in mice. Due to high levels of plasma carboxylesterase, a gradient decrease in POMHEX away from the site of injection is accompanied by a concurrent increase in HemiPOMHEX.

[3] = test system: D502 glioma cell line (ENO1-heterozygously deleted); assay: Enolase inhibitor sensitivity (crystal violet), ENO1-heterozygously deleted D502 cells; format: cell-based; conditions: DMEM 10% FBS, terminal cell density by crystal violet after 7 days
Protocol: (§2) Enolase inhibitor sensitivity experiments were performed, using DMEM containing 10% FBS cell culture media. IC50 (expressed in nM) were calculated based on terminal cell density measured by crystal violet after 7 days of growth. […] Left table: POMHEX. Middle table: HEX. Right table: Ratio of sensitivity to POMHEX versus HEX for each cell line.
(§3) (FIG. 19A) ENO1-deleted (D423, red), ENO1-isogenically rescued (D423 ENO1, blue), and ENO1-WT (LN319, grey) cells were treated POMHEX in RPMI media under the same experimental conditions used for NCI-60 screening. […] IC50 (expressed in nM) were calculated based on terminal cell density measured by crystal violet.
(§4) Cell proliferation assay.

[4] = test system: U343 glioma cell line (ENO1-heterozygously deleted); assay: Enolase inhibitor sensitivity (crystal violet), ENO1-heterozygously deleted U343 cells; format: cell-based; conditions: DMEM 10% FBS, terminal cell density by crystal violet after 7 days
Protocol: as §2, §3, §4

[5] = Plasma and organ levels after injection of POMHEX in mice; format: in vivo, mouse; conditions: 24 hrs. after a single intravenous injection of 10 mg/kg POMHEX
Protocol: FIGS. 3A-3D show the ex-vivo half-life of POMHEX in biological fluids may limit its clinical utility. (FIG. 3A) Ex-vivo half-life of POMHEX in biological fluids. POMHEX has a half-life of ~30 seconds in mouse plasma. The degradation may be prevented by heat inactivation or de-proteinatization with acetonitrile. […] (FIG. 3B) Plasma concentration of HEX and HemiPOMHEX following a single intravenous injection of POMHEX, as a function of time. Mice were injected IV with 10 mg/kg POMHEX and sacrificed at the indicated time points. Each data point represents a single animal. Note, POMHEX itself was below the detection limit (100 nM) even at the earliest time point. It is believed that this may not be reflective of the physiological state as separation of plasma from hematocrit is required for the measurements, which adds approximately 6 minutes of processing time during which POMHEX may be degraded to HemiPOMHEX. (FIG. 3C) The results of the same experiment but performed with an intraperitoneal injection of POMHEX, at a dose of 40 mg/kg. (FIG. 3D) Quantification of POMHEX and its metabolites in mouse organs 24 hrs. after a single intravenous injection of 10 mg/kg POMHEX.
as §1, with “Due to high levels of plasma carboxylesterase, a gradient decrease in POMHEX away from the site of injection is accompanied by a concurrent increase in HemiPOMHEX.” left out

[6] = nitroimidazole in VCY17, nitrofuran in VCY15; cited from earlier work
[7] = 120 h, ENO1-deleted (D423) cells, 5 days, 21% O2, read-out: IC50,D423
[8] = 120 h, 21% O2, 5 days where stated, read-out: IC50 against D423 (ENO1-deleted) cells
[9] = D423 cells, 1% O2 (hypoxic), read-out: IC50,D423 at 1% O2

With O=C1C(P(=O)(NCc2ccccc2)OCOC(=O)N2CCC(N3CCCCC3)CC2)CCCN1O (stereo not shown) [CDP9] the IC50 [1, 7] was 36 µM.

For CC(C)(C)C(=O)OCOP(=O)(NCc1cccc(F)c1)C1CCCN(O)C1=O (stereo not shown) [CDP12, ((((3-fluorobenzyl)amino)(1-hydroxy-2-oxopiperidin-3-yl)phosphoryl)oxy)methyl pivalate], the IC50 [1, 7] was 0.249 µM.

Molecule CC(C)(C)C(=O)OCOP(=O)(NCc1ccc(F)c(F)c1)C1CCCN(O)C1=O (stereo not shown) [CDP13, ((((3,4-difluorobenzyl)amino)(1-hydroxy-2-oxopiperidin-3-yl)phosphoryl)oxy)methyl pivalate] has an IC50 [1, 7] of 0.221 µM.

CC(C)(C)C(=O)OCOP(=O)(NCc1ccc(F)cc1F)C1CCCN(O)C1=O (stereo not shown) [CDP14, ((((2,4-difluorobenzyl)amino)(1-hydroxy-2-oxopiperidin-3-yl)phosphoryl)oxy)methyl pivalate] showed an IC50 [1, 7] of 0.065 µM.

In the case of CC(C)(C)C(=O)OCOP(=O)(NCC1CCCCC1)C1CCCN(O)C1=O (stereo not shown) [CDP18, ((((Cyclohexylmethyl)amino)(1-hydroxy-2-oxopiperidin-3-yl)phosphoryl)oxy)methyl pivalate], the “greater potency compared to benzylamine pro-drug (FLM37)” value ([1]; D423 cells) is reported as ~ 3 fold, the IC50 [1, 8] is reported as 0.077 µM and the IC50 [1, 7] is reported as 0.077 µM.

For CC(C)(C)C(=O)OCOP(=O)(NCc1c(F)cccc1F)C1CCCN(O)C1=O (stereo not shown) [CDP19, ((((2,6-difluorobenzyl)amino)(1-hydroxy-2-oxopiperidin-3-yl)phosphoryl)oxy)methyl pivalate], the IC50 [1, 7] was 0.112 µM.

In the case of O=C1C(P(=O)(O)O)CCCN1O (stereo not shown) [HEX], the “half-life in monkey compared to mouse” value [2] is reported as “longer in monkey”, the IC50 [3] is reported as 28.8 µM and the IC50 [4] is reported as 19.7 µM.

With CC(C)(C)C(=O)OCOP(=O)(O)C1CCCN(O)C1=O (stereo not shown) [HemiPOMHEX] the “half-life in monkey compared to mouse” value [2] was “longer in monkey” and the “level in mouse organs” value [5] was “below the quantification limit (BQL)”.

For CC(C)(C)C(=O)OCOP(=O)(NCc1ccccn1)C1CCCN(O)C1=O (stereo not shown) [KY9, (((1-hydroxy-2-oxopiperidin-3-yl)((pyridin-2-ylmethyl)amino)phosphoryl)oxy)methyl pivalate], the IC50 [1, 7] was 0.096 µM.

In the case of CC(=O)ON1CCCC(P(=O)(NCc2ccccc2)OCCSC(=O)C(C)(C)C)C1=O (stereo not shown) [VCY13, 3-((benzylamino)(2-(pivaloylthio)ethoxy)phosphoryl)-2-oxopiperidin-1-yl acetate], the IC50 [1, 8] is reported as 0.038 µM, the IC50 [1, 7] is reported as 0.038 µM and the “selectivity for ENO1-deleted cells” value [1] is reported as “selective toxicity against ENO1-deleted; also recorded: dose-dependent selectivity for ENO1-deleted cells”.

Molecule CC(=O)ON1CCCC(P(=O)(NCc2ccccc2)OCc2ccc([N+](=O)[O-])o2)C1=O (stereo not shown) [VCY15, 3-((benzylamino)((S-nitrofuran-2-yl)methoxy)phosphoryl)-2-oxopiperidin-1-yl acetate] has an IC50 [1, 8] of 0.23 µM, an IC50 [1, 7] of 0.39 µM and an IC50 [1, 9] of 0.097 µM. The “difference in bioactivation from 21% to 1% O2” value ([1]; taking into account HIF-1α/hypoxia-driven increase in ENO2 expression) was ~ 5 fold, the “selectivity for ENO1-deleted cells” value [1] was “selective toxicity against ENO1-deleted” and the “redox potential of the nitroheterocycle” value [6] was −330 mV.

In the case of CC(=O)ON1CCCC(P(=O)(NCc2ccccc2)OCc2ccc([N+](=O)[O-])s2)C1=O (stereo not shown) [VCY16, 3-((benzylamino)((5-nitrothiophen-2-yl)methoxy)phosphoryl)-2-oxopiperidin-1-yl acetate], the IC50 [1, 7] is reported as 0.234 µM and the IC50 [1, 9] is reported as 0.04 µM.

For CC(C)(C)C(=O)OCOP(=O)(NCc1ccc(F)cc1)C1CCCN(O)C1=O (stereo not shown) [VCY19, ((((4-fluorobenzyl)amino)(1-hydroxy-2-oxopiperidin-3-yl)phosphoryl)oxy)methyl pivalate], the IC50 [1, 7] was 0.129 µM.

Molecule CC(=O)ON1CCCC(P(=O)(NCc2ccc(F)cc2)OCc2ccc([N+](=O)[O-])o2)C1=O (stereo not shown) [VCY22, 3-(((4-fluorobenzyl)amino)((5-nitrofuran-2-yl)methoxy)phosphoryl)-2-oxopiperidin-1-yl acetate] has an IC50 [1, 7] of 0.933 µM and an IC50 [1, 9] of 0.54 µM.

Work on N#CCCOP(=O)(NCc1ccccc1)C1CCCN(O)C1=O (stereo not shown) [VCY26] yielded an IC50 [1, 7] of 5 µM.

For CC(C)(C)C(=O)OCOP(=O)(NCC1CC1)C1CCCN(O)C1=O (stereo not shown) [VCY32, ((((Cyclopropylmethyl)amino)(1-hydroxy-2-oxopiperidin-3-yl)phosphoryl)oxy)methyl pivalate], the IC50 [1, 7] was 0.009 µM and the “selectivity for ENO1-deleted cells” value [1] was “selective for ENO1-deleted cells”.
